Conditions in all cases: stereoisomer not certain
Data set [1] is described as follows: RP, Merck Supelco SUPELCOSIL LC-C18, 250 × 4.6 mm, 5 µm, 40 °C, 1 mL/min, estimated dead time 2.6 min; A: water + 0.1% trifluoroacetic acid, pH 2; B: acetonitrile + 0.1% trifluoroacetic acid, pH 2; gradient (min/%B) 0/5 45/35 47/75 49/35 50/5.
A short description of data set [2]: Other, Phenomenex Kinetex PFP, 100 × 4.6 mm, 5 µm, 45 °C, 0.6 mL/min, estimated dead time 1.8 min; A: water + 0.1% trifluoroacetic acid, pH 2; B: methanol; gradient (min/%B) 0/40 20/72 21/40.
Data set [3] in a line: RP, Agilent ZORBAX RRHD Eclipse Plus C18, 50 × 2.1 mm, 1.8 µm, 30 °C, 0.4 mL/min, estimated dead time 0.28 min; A: water + 0.1% formic acid, pH 3; B: acetonitrile + 0.1% formic acid, pH 3; gradient (min/%B) 0/1 5/10 8/25 9.1/99 10/99 12/99.
Data set [4] is described as follows: RP, Waters ACQUITY UPLC BEH C18, 100 × 2.1 mm, 1.7 µm, 65 °C, 0.4 mL/min, estimated dead time 0.55 min; A: water + 0.1% formic acid, pH 3; B: 80% acetonitrile + 20% acetone + 0.1% formic acid, pH 3; gradient (min/%B) 0/0 5/100 5.5/0 6/0.
The nature of data set [5]: RP, Waters ACQUITY UPLC HSS T3, 100 × 2.1 mm, 50 °C; A: water + 0.1% formic acid, pH 3; B: 30% methanol + 70% acetonitrile + 0.1% formic acid, pH 3; gradient (min/%B) 0/5 1/8 2/15 3/40 4/70 4.5/100 5/100 6.4/100 6.6/5 6.8/5 7/5.
A short description of data set [6]: RP, Agilent ZORBAX RRHD Eclipse Plus C18, 50 × 2.1 mm, 1.8 µm, 30 °C, 0.4 mL/min, estimated dead time 0.28 min; A: water + 0.1% formic acid, pH 3; B: acetonitrile + 0.1% formic acid, pH 3; gradient (min/%B) 0/1 5/10 8/25 9.1/99 10/99 12/1.
Data set [7] in a line: RP, Agilent ZORBAX Eclipse XDB-C18, 100 × 2.1 mm, 1.8 µm, 50 °C, 0.4 mL/min, estimated dead time 0.55 min; A: water + 0.1% formic acid, pH 3; B: methanol + 0.1% formic acid, pH 3; gradient (min/%B) 0/2 10/100 14.5/100 14.51/2 16.5/2.
Data set [8] is described as follows: RP, Waters Atlantis T3, 100 × 2.1 mm, 3 µm, 40 °C, 0.3 mL/min, estimated dead time 0.73 min; A: water + 0.1% trifluoroacetic acid, pH 2; B: acetonitrile + 0.1% trifluoroacetic acid, pH 2; gradient (min/%B) 0/10 1/10 6/40 7/50 8/50 14/70 16/80 20/10 25/10.
Data set [9] in a line: RP, Phenomenex Kinetex EVO C18, 100 × 2.1 mm, 2.6 µm, 40 °C, 0.4 mL/min, estimated dead time 0.55 min; A: water + 0.2% formic acid; B: acetonitrile + 0.2% formic acid; gradient (min/%B) 0/5 0.5/5 7/95 8/95 8.5/5 12/5.
Data set [10] is described as follows: RP, Merck LiChrospher RP-18, 250 × 4 mm, 5 µm, 35 °C, 0.3 mL/min, estimated dead time 6.7 min; A: water + 0.5% formic acid; B: acetonitrile + 0.5% formic acid; gradient (min/%B) 0/5 10/5 30/15 45/20 65/20 95/54 110/63 115/5 135/5.
Data set [11] is described as follows: RP, Phenomenex Synergi Hydro-RP, 250 × 2 mm, 4 µm, 25 °C, 0.2 mL/min, estimated dead time 2.5 min; A: water + 0.1% formic acid, pH 3; B: acetonitrile + 0.1% formic acid, pH 3; gradient (min/%B) 0/0.5 7/0.5 12/12.5 25/16.3 47/35 48/65 50/65 50.1/0.5.
Data set [12] can be described thus: RP, Waters ACQUITY UPLC BEH Shield RP18, 150 × 2.1 mm, 1.7 µm, 40 °C, 0.4 mL/min, estimated dead time 0.83 min; A: water + 0.1% formic acid, pH 3; B: acetonitrile + 0.1% formic acid, pH 3; gradient (min/%B) 0/0 30/50 31/100 37/100 37.1/0.
A short description of data set [13]: RP, Agilent InfinityLab Poroshell 120 EC-C18, 100 × 3 mm, 2.7 µm, 25 °C, 0.4 mL/min, estimated dead time 1.1 min; A: water + 0.1% formic acid, pH 3; B: acetonitrile + 0.1% formic acid, pH 3; gradient (min/%B) 0/5 10/25 20/40 24/90 25/90 26/5 30/5.
A short description of data set [14]: RP, Phenomenex Luna C18, 150 × 4.6 mm, 3 µm, 25 °C, 0.5 mL/min, estimated dead time 3.2 min; A: water + 0.1% formic acid, pH 3; B: acetonitrile + 0.1% formic acid, pH 3; gradient (min/%B) 0/0 30/30 35/40 50/80 52/80 60/0 65/0.
Data set [15] can be described thus: RP, Waters ACQUITY UPLC BEH Shield RP18, 100 × 2.1 mm, 1.7 µm, 30 °C, 0.6 mL/min, estimated dead time 0.37 min; A: water + 0.1% formic acid, pH 3; B: acetonitrile + 0.1% formic acid, pH 3; gradient (min/%B) 0/0 2/0 7/10 22/95 22.1/0 26/0.
A short description of data set [16]: RP, 150 × 2.1 mm, 2.6 µm, 40 °C, 0.35 mL/min, estimated dead time 0.94 min; A: water + 0.1% formic acid, pH 3; B: acetonitrile + 0.1% formic acid, pH 3; gradient (min/%B) 0/0 1/0 12.5/100 14/100 14.2/0 15/0.
Data set [17] in a line: RP, Waters ACQUITY UPLC HSS T3, 100 × 2.1 mm, 1.8 µm, 30 °C, 0.4 mL/min, estimated dead time 0.55 min; A: water + 0.1% formic acid, pH 3; B: acetonitrile + 0.1% formic acid, pH 3; gradient (min/%B) 0/0 2/0 15/100 22/100 22.1/0 26/0.
Data set [18] can be described thus: RP, 150 × 2.1 mm, 2.6 µm, 40 °C, 0.35 mL/min, estimated dead time 0.94 min; A: water + 0.1% formic acid, pH 3; B: acetonitrile + 0.1% formic acid, pH 3; gradient (min/%B) 0/0 1/5 7/45 8.5/80 10.5/80 11/5 12/5.

As for `O=C(O)c1ccc(O)c(O)c1O` [2,3,4-Trihydroxybenzoic acid], the LC retention time in [1] is 8.9 min; in data set [2] it was 4.34 min.
Turning to `O=C(O)c1ccc(O)cc1` [4-Hydroxybenzoic acid], the LC retention time in data set [3] was 2.55 min; in data set [4] it was 1.65 min; in data set [5], 2.8 min; in data set [1], 11.3 min; in [6], 3.9 min; in data set [7], 2.91 min. The LC retention time in data set [8] is 3.58 min; in data set [9], 2.18 min; in data set [10], 39.7 min; in data set [11], 19.9 min; in data set [2] it was 5.08 min.
Regarding `O=c1cc(-c2ccc(O)cc2)oc2cc(O)cc(O)c12` [Apigenin], the LC retention time in [12] is 23.6 min; in [1], 43.2 min; in [8], 10.1 min; in data set [13], 16.3 min; in data set [10] it was 97 min.
On to `O=c1cc2oc(-c3cc(O)c(O)c(O)c3)c(O)cc-2c(O)c1` [Delphinidin], for which the LC retention time in data set [1] is 25.1 min; in data set [2], 8.44 min.
In the case of `O=c1oc2c(O)c(O)cc3c(=O)oc4c(O)c(O)cc1c4c23` [Ellagic acid], the LC retention time was 1.91 min in data set [4]; 24.8 min in data set [1]; 14.2 min in data set [14]; 7.94 min in data set [8]; 8.97 min in [13]; 60.3 min in data set [10]. The LC retention time in [15] is 13.1 min.
Consider `COc1ccc(C2CC(=O)c3c(O)cc(OC4OC(COC5OC(C)C(O)C(O)C5O)C(O)C(O)C4O)cc3O2)cc1O` (configuration not stated) [Hesperidin], for which the LC retention time in data set [16] was 6 min; in data set [12] it was 13 min; in data set [17], 9.62 min; in data set [18], 6.18 min; in data set [1], 30.1 min; in data set [8] it was 10 min. For the same compound, the figures for the LC retention time in [13], in [10] and in [2] were 10.8 min, 75.1 min and 9.9 min, respectively.
Regarding `COc1cc(-c2[o+]c3cc(O)cc(O)c3cc2O)cc(OC)c1O` [Malvidin], the LC retention time in data set [1] is 35.9 min; in data set [2] it was 14.3 min.
With `Oc1ccc(-c2[o+]c3cc(O)cc(O)c3cc2O)cc1` [Pelargonidin], the LC retention time in data set [1] was 33.5 min; in [10], 42 min; in data set [2], 12.9 min.
For `O=c1c(O)c(-c2ccc(O)c(O)c2)oc2cc(O)cc(O)c12` [Quercetin], the LC retention time in [3] is 9.19 min; in [12], 20.4 min; in [4] it was 2.63 min; in data set [17] it was 11 min; in data set [5] it was 3.74 min; in data set [1], 37.2 min. The LC retention time is 9.04 min in data set [6]; 9.34 min in data set [8]; 14.1 min in [13]; 91 min in [10]; 46.8 min in [11]; 16.6 min in data set [2].
As for `CC1OC(OCC2OC(Oc3c(-c4ccc(O)c(O)c4)oc4cc(O)cc(O)c4c3=O)C(O)C(O)C2O)C(O)C(O)C1O` (configuration not stated) [Rutin], the LC retention time in data set [12] was 12.6 min; in data set [1], 25.2 min; in [8] it was 7.12 min; in data set [13], 8.79 min; in [10], 59.2 min; in data set [11] it was 34.1 min. In addition, the LC retention time in [2] was 8.63 min.
Turning to `O=C1c2c(O)cc(O)cc2OC(c2ccc(O)c(O)c2)C1O` (configuration not stated) [Taxifolin], the LC retention time in data set [3] was 8.66 min; in data set [16], 5.84 min; in [12], 12.4 min; in data set [17] it was 9.67 min; in [18], 5.86 min; in [1], 23 min. Further, the figures for the LC retention time in data set [6], in data set [11] and in data set [2] were 7.85 min, 33.9 min and 7.73 min, respectively.
On to `O=C(O)C=Cc1ccccc1O` [o-Coumaric acid], for which the LC retention time was 8.67 min in data set [3]; 6.29 min in [16]; 12.7 min in [12]; 6.36 min in [18]; 25.9 min in data set [1]; 8.32 min in [6]. Also, the results for the LC retention time in [10] and in [11] were 74.4 min and 37.5 min, respectively.

Values taken from the RepoRT retention time repository (doi:10.1016/j.foodchem.2021.129757).
